Laboratory results: US11198713B2, “Agents modulating beta-catenin functions and methods thereof” (FOG PHARMACEUTICALS, INC., priority 2017, dated 2021)
Numbered stars: 1 amine (or outer) side, 2 acyl side, 3 side chain; on linkers, the order of the positions; unused ones are H or OH. Bridge positions count the residues as written; N and C are the ends. Square brackets hold non-standard residues; d marks the D form. Peptide text beside a SMILES is read from it. dαMeOrn(Me) = CN(CCC[C@@](C)(N[*:1])C(=O)[*:2])[*:3]; αMeDab(Me) = CN(CC[C@](C)(N[*:1])C(=O)[*:2])[*:3]; X12 = CN(CC=[*:3])CCC[C@@](C)(N[*:1])C(=O)[*:2]; X13 = C[C@@](CCCCC=[*:3])(N[*:1])C(=O)[*:2]; X2 = O=C(OCC=CCOC(=O)[*:2])[*:1]

The compounds below were run against T1, full-length beta-catenin (Axin site) (Homo sapiens, UniProt P35222) (assay: Competition fluorescence polarization assay (Axin site probe)). Conditions: competition fluorescence polarization, Table 2; read-out: in vitro FP EC50.
T1 construct: 15 nM full-length beta-catenin, 20 nM FITC labeled peptide in buffer
T1 sequence (P35222 1-781): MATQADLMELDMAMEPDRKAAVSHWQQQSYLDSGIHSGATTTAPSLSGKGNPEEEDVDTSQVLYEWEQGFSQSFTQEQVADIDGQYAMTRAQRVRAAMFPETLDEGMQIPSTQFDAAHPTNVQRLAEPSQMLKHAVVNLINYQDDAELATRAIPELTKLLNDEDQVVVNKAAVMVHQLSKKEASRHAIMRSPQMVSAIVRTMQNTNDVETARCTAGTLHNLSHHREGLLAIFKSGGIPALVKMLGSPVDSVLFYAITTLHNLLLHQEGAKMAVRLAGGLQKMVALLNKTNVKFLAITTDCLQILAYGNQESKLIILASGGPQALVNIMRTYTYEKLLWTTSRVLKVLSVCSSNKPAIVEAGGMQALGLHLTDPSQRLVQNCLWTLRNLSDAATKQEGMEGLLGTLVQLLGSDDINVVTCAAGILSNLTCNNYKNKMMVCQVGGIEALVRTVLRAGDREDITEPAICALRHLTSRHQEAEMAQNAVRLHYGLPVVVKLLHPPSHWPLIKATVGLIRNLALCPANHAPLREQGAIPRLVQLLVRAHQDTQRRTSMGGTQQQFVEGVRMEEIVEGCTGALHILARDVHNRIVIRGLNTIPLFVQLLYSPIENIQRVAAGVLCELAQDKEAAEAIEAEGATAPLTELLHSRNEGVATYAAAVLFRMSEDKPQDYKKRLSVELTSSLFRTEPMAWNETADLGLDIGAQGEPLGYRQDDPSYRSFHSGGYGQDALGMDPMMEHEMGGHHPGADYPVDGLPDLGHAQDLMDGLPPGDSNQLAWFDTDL
Type: binding
In short: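 Competition FP: 15 nM full-length β-catenin pre-incubated 5 min with 20 nM FITC-labelled stapled Axin-site peptide, then titrated peptide added (3-fold series from 5 μM) for 15 min in the dark. Buffer 50 mM Tris pH 8.0, 250 mM NaCl, 2% glycerol, 0.5 mM EDTA; duplicate reads.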

CC[C@H](C)[C@@H]1NC(=O)[C@H](Cc2c[nH]cn2)NC(=O)[C@H](C)NC(=O)[C@H](CC(=O)O)NC(=O)[C@H](CC(C)C)NC(=O)[C@H]([C@@H](C)CC)NC(=O)[C@](C)(NC(=O)[C@H](C)NC(C)=O)CCCN(C)CC=CCCCC[C@@](C)(C(=O)N[C@@H](CCCNC(=N)N)C(=O)N[C@H](C(=O)N[C@@H](Cc2c[nH]c3ccccc23)C(N)=O)C(C)C)NC1=O [FP0507a, Ac-A-MI-I-L-D-A-H-I-S6-R-V-W-NH2] (Ac-A[X12]ILDAHI[X13]RVW-NH2; staple 2-9) and CC[C@H](C)[C@@H]1NC(=O)[C@H](Cc2c[nH]cn2)NC(=O)[C@H](C)NC(=O)[C@H](CC(=O)O)NC(=O)[C@H](CC(C)C)NC(=O)[C@H]([C@@H](C)CC)NC(=O)[C@](C)(NC(=O)[C@H](C)NC(C)=O)CCCCCCC=CCCC[C@@](C)(C(=O)N[C@@H](CCCNC(=N)N)C(=O)N[C@H](C(=O)N[C@@H](Cc2c[nH]c3ccccc23)C(N)=O)C(C)C)NC1=O (single isomer, unassigned) [FP0217s Isomer 1, Ac-A-R8-I-L-D-A-H-I-S5-R-V-W-NH2] cannot be ordered by EC50: under 100 nM for the first, under 100 nM for the second.

First: CC[C@H](C)[C@@H]1NC(=O)[C@H](Cc2c[nH]cn2)NC(=O)[C@H](C)NC(=O)[C@H](CC(=O)O)NC(=O)[C@H](CC(C)C)NC(=O)[C@H]([C@@H](C)CC)NC(=O)[C@](C)(NC(=O)[C@H](C)NC(C)=O)CCCCCCC=CCOC(=O)N2CC[C@@](C(=O)N[C@@H](CCCNC(=NC)NC)C(=O)N[C@H](C(=O)N[C@@H](Cc3c[nH]c4ccccc34)C(N)=O)C(C)C)(C2)NC1=O [FP0640c, Ac-A-R8-I-L-D-A-H-I-MB-SDMA-V-W-NH2]
Second: CC[C@H](C)[C@@H]1NC(=O)[C@H](Cc2c[nH]cn2)NC(=O)[C@H](C)NC(=O)[C@H](CC(=O)O)NC(=O)[C@H](CC(C)C)NC(=O)[C@H]([C@@H](C)CC)NC(=O)[C@](C)(NC(=O)[C@H](C)NC(C)=O)CCCCCC=CCOC(=O)N2CC(C(=O)N[C@@H](CCCNC(=N)N)C(=O)N[C@H](C(=O)N[C@@H](Cc3c[nH]c4ccccc34)C(N)=O)C(C)C)(C2)NC1=O [FP0516c, Ac-A-R7-I-L-D-A-H-I-MA-R-V-W-NH2]
The EC50 of the first is lower: under 100 nM for the first, 100 to 500 nM for the second. The first is the more potent here.

First: CC[C@H](C)[C@@H]1NC(=O)[C@@](C)(NC(=O)[C@H](CCC(N)=O)NC(=O)[C@@H]2CCCN2C(C)=O)CCCCCC=CCN2CC[C@@](C(=O)N[C@@H](Cc3c[nH]cn3)C(=O)N[C@H](C(=O)N[C@@H](CCCNC(=N)N)C(=O)N[C@@H](CCCNC(=N)N)C(=O)N[C@H](C(=O)N[C@@H](Cc3c[nH]c4ccccc34)C(=O)N[C@@H](CCCNC(=N)N)C(N)=O)C(C)C)C(C)C)(C2)NC(=O)[C@H](CC(=O)O)NC(=O)[C@H](CC(C)C)NC1=O (single isomer, unassigned) [FP0763a, Ac-P-Q-S7-I-L-D-MB-H-V-R-R-V-W-R-NH2]
Second: CC[C@H](C)[C@@H]1NC(=O)[C@](C)(NC(=O)[C@H](CCC(N)=O)NC(=O)[C@@H]2CCCN2C(C)=O)CCCCCC=CCN2CC[C@](C(=O)N[C@@H](Cc3c[nH]cn3)C(=O)N[C@H](C(=O)N[C@@H](CCCNC(=N)N)C(=O)N[C@@H](CCCNC(=N)N)C(=O)N[C@H](C(=O)N[C@@H](Cc3c[nH]c4ccccc34)C(=O)N[C@@H](CCCNC(=N)N)C(N)=O)C(C)C)C(C)C)(C2)NC(=O)[C@H](CC(=O)O)NC(=O)[C@H](CC(C)C)NC1=O (single isomer, unassigned) [FP0768a, Ac-P-Q-R7-I-L-D-MC-H-V-R-R-V-W-R-NH2]
The EC50 of the first is lower: 500 to 5000 nM for the first, over 5000 nM for the second. The first is the more potent here.

Compared with CC[C@H](C)[C@@H]1NC(=O)[C@](C)(NC(=O)[C@H](CCC(N)=O)NC(=O)[C@@H]2CCCN2C(C)=O)CCCC=CCN2CC[C@@](C(=O)N[C@@H](Cc3c[nH]cn3)C(=O)N[C@H](C(=O)N[C@@H](CCCNC(=N)N)C(=O)N[C@@H](CCCNC(=N)N)C(=O)N[C@H](C(=O)N[C@@H](Cc3c[nH]c4ccccc34)C(=O)N[C@@H](CCCNC(=N)N)C(N)=O)C(C)C)C(C)C)(C2)NC(=O)[C@H](CC(=O)O)NC(=O)[C@H](CC(C)C)NC1=O (single isomer, unassigned) [FP0758a, Ac-P-Q-R5-I-L-D-MB-H-V-R-R-V-W-R-NH2], CC[C@H](C)[C@@H]1NC(=O)C2(NC(=O)[C@H](CCC(N)=O)NC(=O)[C@@H]3CCCN3C(C)=O)CN(C2)C(=O)OCC=CCCC[C@](C)(C(=O)N[C@@H](Cc2c[nH]cn2)C(=O)N[C@H](C(=O)N[C@@H](CCCNC(=N)N)C(=O)N[C@@H](CCCNC(=N)N)C(=O)N[C@H](C(=O)N[C@@H](Cc2c[nH]c3ccccc23)C(=O)N[C@@H](CCCNC(=N)N)C(N)=O)C(C)C)C(C)C)NC(=O)[C@H](CC(=O)O)NC(=O)[C@H](CC(C)C)NC1=O (single isomer, unassigned) [FP0723c, Ac-P-Q-MA-I-L-D-R5-H-V-R-R-V-W-R-NH2] is lower in EC50: over 5000 nM for the first, 500 to 5000 nM for the second. The second is the more potent here.

CC[C@H](C)[C@@H]1NC(=O)[C@H](Cc2ccccn2)NC(=O)[C@H](C)NC(=O)[C@H](CC(=O)O)NC(=O)[C@H](CC(C)C)NC(=O)[C@H]([C@@H](C)CC)NC(=O)[C@](C)(NC(=O)[C@H](C)NC(C)=O)CCCCCCC=CCOC(=O)N2CC[C@@](C(=O)N[C@H](C(=O)N[C@H](C(=O)N[C@@H](Cc3c[nH]c4ccccc34)C(N)=O)C(C)C)[C@@H](C)O)(C2)NC1=O (single isomer, unassigned) [FP0561c Isomer 2, Ac-A-R8-I-L-D-A-2pyr-I-MB-T-V-W-NH2] and CC[C@H](C)[C@@H]1NC(=O)[C@H](Cc2ccccn2)NC(=O)[C@H](C)NC(=O)[C@H](CC(=O)O)NC(=O)[C@H](CC(C)C)NC(=O)[C@H]([C@@H](C)CC)NC(=O)[C@](C)(NC(=O)[C@H](C)NC(C)=O)CCCCCCC=CCOC(=O)N2CC[C@@](C(=O)NC(C)(C)C(=O)N[C@H](C(=O)N[C@@H](Cc3c[nH]c4ccccc34)C(N)=O)C(C)C)(C2)NC1=O (single isomer, unassigned) [FP0570c Isomer 2, Ac-A-R8-I-L-D-A-2pyr-I-MB-Aib-V-W-NH2] cannot be ordered by EC50: over 5000 nM for the first, over 5000 nM for the second.

First: CC[C@H](C)[C@@H]1NC(=O)[C@H](Cc2c[nH]cn2)NC(=O)[C@H](C)NC(=O)[C@H](CC(=O)O)NC(=O)[C@H](CC(C)C)NC(=O)[C@H]([C@@H](C)CC)NC(=O)[C@](C)(NC(=O)[C@H](C)NC(C)=O)CCCCCCC=CCOC(=O)N2CC[C@@](C(=O)N[C@@H](CCCNC(=N)N)C(=O)N[C@H](C(=O)N[C@@](C)(Cc3c[nH]c4ccccc34)C(N)=O)C(C)C)(C2)NC1=O [FP0631c, Ac-A-R8-I-L-D-A-H-I-MB-R-V-aMeW-NH2]
Second: CC[C@H](C)[C@@H]1NC(=O)[C@H](Cc2c[nH]cn2)NC(=O)[C@H](C)NC(=O)[C@H](CC(=O)O)NC(=O)[C@H](CC(C)C)NC(=O)[C@H]([C@@H](C)CC)NC(=O)[C@](C)(NC(=O)[C@H](C)NC(C)=O)CCCN(C)C(=O)OCC=CCOC(=O)N(C)CC[C@@](C)(C(=O)N[C@@H](CCCNC(=N)N)C(=O)N[C@H](C(=O)N[C@@H](Cc2c[nH]c3ccccc23)C(N)=O)C(C)C)NC1=O [FP0587c, Ac-A-MI-I-L-D-A-H-I-MF-R-V-W-NH2] (Ac-A[dαMeOrn(Me)]ILDAHI[αMeDab(Me)]RVW-NH2; linker 2-9 via X2)
The EC50 of the first is higher: 500 to 5000 nM for the first, under 100 nM for the second.

CC[C@H](C)[C@@H]1NC(=O)[C@H](Cc2ccccn2)NC(=O)[C@H](C)NC(=O)[C@H](CC(=O)O)NC(=O)[C@H](CC(C)C)NC(=O)[C@H]([C@@H](C)CC)NC(=O)[C@](C)(NC(=O)[C@H](C)NC(C)=O)CCCCCCC=CCOC(=O)N2CC[C@@](C(=O)N[C@@H](Cc3cccc4ccccc34)C(=O)N[C@H](C(=O)N[C@@H](Cc3c[nH]c4ccccc34)C(N)=O)C(C)C)(C2)NC1=O (single isomer, unassigned) [FP0577c Isomer 1, Ac-A-R8-I-L-D-A-2pyr-I-MB-1NapA-V-W-NH2] and CC[C@H](C)[C@@H]1NC(=O)[C@H](Cc2ccccn2)NC(=O)[C@H](C)NC(=O)[C@H](CC(=O)O)NC(=O)[C@H](CC(C)C)NC(=O)[C@H]([C@@H](C)CC)NC(=O)[C@](C)(NC(=O)[C@H](C)NC(C)=O)CCCCCCC=CCOC(=O)N2CC[C@@](C(=O)N[C@@H](Cc3ccccc3)C(=O)N[C@H](C(=O)N[C@@H](Cc3c[nH]c4ccccc34)C(N)=O)C(C)C)(C2)NC1=O (single isomer, unassigned) [FP0555c Isomer 1, Ac-A-R8-I-L-D-A-2pyr-I-MB-F-V-W-NH2] cannot be ordered by EC50: over 5000 nM for the first, over 5000 nM for the second.

Same assay, conditions: competition with FITC labeled Axin-site probe, 15 nM full-length beta-catenin; read-out: FP EC50

Compound CC[C@H](C)[C@@H]1NC(=O)[C@](C)(NC(=O)[C@H](CCC(N)=O)NC(=O)[C@@H]2CCCN2C(C)=O)CCCN(C)CC=CCCC[C@](C)(C(=O)N[C@@H](Cc2c[nH]cn2)C(=O)N[C@H](C(=O)N[C@@H](CCCNC(=N)N)C(=O)N[C@@H](CCCNC(=N)N)C(=O)N[C@H](C(=O)N[C@@H](Cc2c[nH]c3ccccc23)C(=O)N[C@@H](CCCNC(=N)N)C(N)=O)C(C)C)C(C)C)NC(=O)[C@H](CC(=O)O)NC(=O)[C@H](CC(C)C)NC1=O (single isomer, unassigned) [FP-0783, Ac-P-Q-ReN-I-L-D-R5-H-V-R-R-V-W-R-NH2] has an EC50 of 1400 nM.
